Laboratory results as given in patent US7074789B2, “Kinase inhibitors” (Amgen Inc., priority 1999, dated 2006).
pIC50: −log10 of the molar value.

Key:
Assay type in all cases: biochemical
Src = target: T1, Src (Homo sapiens, UniProt P12931); test: Kinase inhibition assay (33P transfer), Src; conditions: Table 6, Src-1 kinase inhibition class
T1 construct: Kinases are expressed as either kinase domains or full length constructs; made in house
Summary of the method: (§1)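 Using immobilised substrate copolymers (poly(Glu,Tyr) 4:1; poly(Arg,Ser) 3:1) and [33P]ATP, purified fusion kinases were allowed to react; plates were then rinsed in 0.5% phosphoric acid and counted in a scintillation detector. Half-maximal inhibition of label transfer defines IC50.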

ErbB4 = target: T2, ErbB4 (Homo sapiens, UniProt Q15303); test: Kinase inhibition assay (33P transfer), ErbB4; conditions: read-out: ErbB4-1
T2 construct: Kinases are expressed as either kinase domains or full length constructs; made in house

AKT = target: T3, AKT (Homo sapiens, UniProt Q9Y243); test: Kinase inhibition assay (33P transfer), AKT; conditions: Table 2, kinase inhibition class; read-out: AKT3-1
T3 construct: Kinases are expressed as either kinase domains or full length constructs; made in house
Summary of the method: (§2)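 Filterless plate radiometric format: immobilized poly(Glu,Tyr) 4:1 or poly(Arg,Ser) 3:1, 33P-labelled ATP, tagged recombinant kinase (some with regulatory partners). Incorporated label counted after phosphoric acid wash.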

Lck = target: T4, Lck (Homo sapiens, UniProt P06239); test: Kinase inhibition assay (33P transfer), Lck; conditions: Table 3; read-out: Lck-1
T4 construct: Kinases are expressed as either kinase domains or full length constructs; made in house
Summary of the method: as §2

Zap-70 = target: T5, Zap-70 (Homo sapiens, UniProt P43403); test: Kinase inhibition assay (33P transfer), Zap-70; conditions: Table 3; read-out: Zap-1
T5 construct: Kinases are expressed as either kinase domains or full length constructs; made in house
T5 sequence (P43403 1-619): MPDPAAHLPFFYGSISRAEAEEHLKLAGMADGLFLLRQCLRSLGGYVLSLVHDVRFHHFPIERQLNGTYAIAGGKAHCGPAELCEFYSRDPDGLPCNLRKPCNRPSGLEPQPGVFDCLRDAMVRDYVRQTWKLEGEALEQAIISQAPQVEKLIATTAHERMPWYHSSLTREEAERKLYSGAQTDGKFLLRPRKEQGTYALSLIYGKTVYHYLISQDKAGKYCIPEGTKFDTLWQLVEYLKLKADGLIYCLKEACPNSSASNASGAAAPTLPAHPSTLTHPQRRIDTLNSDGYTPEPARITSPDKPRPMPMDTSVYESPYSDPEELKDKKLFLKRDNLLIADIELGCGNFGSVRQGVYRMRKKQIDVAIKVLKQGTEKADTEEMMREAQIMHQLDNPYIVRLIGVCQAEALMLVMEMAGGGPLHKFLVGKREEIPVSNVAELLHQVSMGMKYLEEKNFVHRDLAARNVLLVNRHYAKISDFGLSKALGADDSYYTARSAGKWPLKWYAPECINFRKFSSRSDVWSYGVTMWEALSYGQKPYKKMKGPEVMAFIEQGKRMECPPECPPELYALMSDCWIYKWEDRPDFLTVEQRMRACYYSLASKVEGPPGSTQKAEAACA
Summary of the method: as §2

EPHB4 = target: T6, EPHB4 (Homo sapiens, UniProt P54760); test: Kinase inhibition assay (33P transfer), EPHB4; conditions: read-out: EPHB4-1
T6 construct: Kinases are expressed as either kinase domains or full length constructs; made in house
T6 sequence (P54760 16-987): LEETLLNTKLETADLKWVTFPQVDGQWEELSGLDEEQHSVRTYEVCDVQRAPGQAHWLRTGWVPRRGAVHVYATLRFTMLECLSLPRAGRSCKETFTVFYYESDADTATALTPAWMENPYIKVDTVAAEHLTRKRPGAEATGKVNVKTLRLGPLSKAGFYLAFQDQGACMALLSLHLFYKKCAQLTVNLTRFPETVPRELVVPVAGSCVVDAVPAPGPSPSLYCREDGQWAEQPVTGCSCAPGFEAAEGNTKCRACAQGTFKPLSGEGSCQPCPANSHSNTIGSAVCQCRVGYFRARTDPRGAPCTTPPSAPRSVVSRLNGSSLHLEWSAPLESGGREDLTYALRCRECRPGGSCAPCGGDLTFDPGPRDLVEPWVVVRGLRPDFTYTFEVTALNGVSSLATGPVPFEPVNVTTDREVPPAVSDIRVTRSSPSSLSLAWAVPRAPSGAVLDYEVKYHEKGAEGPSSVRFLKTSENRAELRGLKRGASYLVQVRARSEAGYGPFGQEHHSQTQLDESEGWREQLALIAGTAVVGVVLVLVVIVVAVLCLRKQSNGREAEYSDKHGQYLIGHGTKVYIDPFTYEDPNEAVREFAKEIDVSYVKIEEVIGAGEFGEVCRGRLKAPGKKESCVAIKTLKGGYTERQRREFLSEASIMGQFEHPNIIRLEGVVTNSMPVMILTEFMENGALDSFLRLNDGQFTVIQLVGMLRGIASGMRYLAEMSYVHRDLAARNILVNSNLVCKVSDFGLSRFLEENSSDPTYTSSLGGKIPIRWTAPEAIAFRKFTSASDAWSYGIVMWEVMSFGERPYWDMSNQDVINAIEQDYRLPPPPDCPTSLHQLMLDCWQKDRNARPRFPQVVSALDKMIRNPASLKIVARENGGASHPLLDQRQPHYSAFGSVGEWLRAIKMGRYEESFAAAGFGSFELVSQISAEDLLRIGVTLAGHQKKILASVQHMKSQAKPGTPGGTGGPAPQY

EGFR = target: T7, EGFR (Homo sapiens, UniProt P00533); test: Kinase inhibition assay (33P transfer), EGFR; conditions: Table 2, kinase inhibition class; read-out: EGFR-1
T7 construct: Kinases are expressed as either kinase domains or full length constructs; made in house
Summary of the method: as §1

IGFR-1 = target: T8, IGFR-1 (Homo sapiens, UniProt P08069); test: Kinase inhibition assay (33P transfer), IGFR-1; conditions: Table 2, kinase inhibition class
T8 construct: Kinases are expressed as either kinase domains or full length constructs; made in house
T8 sequence (P08069 31-1367): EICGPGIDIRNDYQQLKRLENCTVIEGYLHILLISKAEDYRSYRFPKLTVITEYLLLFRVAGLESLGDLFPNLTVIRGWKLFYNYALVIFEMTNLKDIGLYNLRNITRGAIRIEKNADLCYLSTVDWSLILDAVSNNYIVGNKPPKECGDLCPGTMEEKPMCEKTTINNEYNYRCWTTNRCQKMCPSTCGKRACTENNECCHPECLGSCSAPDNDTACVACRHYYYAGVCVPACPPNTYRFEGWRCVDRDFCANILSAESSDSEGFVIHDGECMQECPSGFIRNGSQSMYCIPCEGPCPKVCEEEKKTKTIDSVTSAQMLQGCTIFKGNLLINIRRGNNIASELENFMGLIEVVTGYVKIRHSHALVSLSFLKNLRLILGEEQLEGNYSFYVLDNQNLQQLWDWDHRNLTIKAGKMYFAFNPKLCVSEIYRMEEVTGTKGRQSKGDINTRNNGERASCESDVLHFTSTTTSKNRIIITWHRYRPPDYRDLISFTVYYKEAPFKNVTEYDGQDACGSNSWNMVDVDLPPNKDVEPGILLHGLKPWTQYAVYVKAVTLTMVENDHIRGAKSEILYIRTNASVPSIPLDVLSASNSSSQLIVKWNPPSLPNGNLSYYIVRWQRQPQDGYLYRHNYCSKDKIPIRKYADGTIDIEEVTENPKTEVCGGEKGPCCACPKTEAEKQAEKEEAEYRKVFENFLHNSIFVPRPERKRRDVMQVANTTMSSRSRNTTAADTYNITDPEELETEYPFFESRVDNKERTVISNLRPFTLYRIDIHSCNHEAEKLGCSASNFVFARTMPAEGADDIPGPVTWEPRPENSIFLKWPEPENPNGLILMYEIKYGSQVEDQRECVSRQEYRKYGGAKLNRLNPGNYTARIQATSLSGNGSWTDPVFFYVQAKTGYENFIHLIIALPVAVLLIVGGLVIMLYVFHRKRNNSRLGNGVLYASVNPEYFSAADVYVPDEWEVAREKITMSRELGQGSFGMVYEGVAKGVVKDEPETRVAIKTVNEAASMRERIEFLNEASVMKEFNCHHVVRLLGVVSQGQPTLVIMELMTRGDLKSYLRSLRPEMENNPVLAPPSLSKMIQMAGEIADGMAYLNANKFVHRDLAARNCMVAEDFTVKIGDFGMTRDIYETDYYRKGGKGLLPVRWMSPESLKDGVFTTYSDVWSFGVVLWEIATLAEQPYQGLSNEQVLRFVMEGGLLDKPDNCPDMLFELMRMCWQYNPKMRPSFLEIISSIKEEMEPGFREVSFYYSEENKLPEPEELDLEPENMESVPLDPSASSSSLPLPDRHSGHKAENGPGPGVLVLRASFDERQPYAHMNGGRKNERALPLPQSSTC

T3 sequence (Q9Y243 whole entry, the tested form may be a part): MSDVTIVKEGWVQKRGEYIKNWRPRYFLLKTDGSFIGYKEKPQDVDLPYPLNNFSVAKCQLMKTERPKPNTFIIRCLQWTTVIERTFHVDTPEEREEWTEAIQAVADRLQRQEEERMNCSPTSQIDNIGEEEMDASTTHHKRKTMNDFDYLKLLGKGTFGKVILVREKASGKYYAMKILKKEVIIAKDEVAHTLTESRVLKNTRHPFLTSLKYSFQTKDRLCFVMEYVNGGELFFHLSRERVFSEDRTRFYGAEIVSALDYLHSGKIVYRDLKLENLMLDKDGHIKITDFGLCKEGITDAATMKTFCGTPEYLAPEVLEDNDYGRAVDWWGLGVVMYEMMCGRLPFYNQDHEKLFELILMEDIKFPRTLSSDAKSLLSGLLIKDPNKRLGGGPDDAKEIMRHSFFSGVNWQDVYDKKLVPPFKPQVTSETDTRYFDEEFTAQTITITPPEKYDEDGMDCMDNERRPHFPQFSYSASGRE
T2 sequence (Q15303 26-1308, species assumed): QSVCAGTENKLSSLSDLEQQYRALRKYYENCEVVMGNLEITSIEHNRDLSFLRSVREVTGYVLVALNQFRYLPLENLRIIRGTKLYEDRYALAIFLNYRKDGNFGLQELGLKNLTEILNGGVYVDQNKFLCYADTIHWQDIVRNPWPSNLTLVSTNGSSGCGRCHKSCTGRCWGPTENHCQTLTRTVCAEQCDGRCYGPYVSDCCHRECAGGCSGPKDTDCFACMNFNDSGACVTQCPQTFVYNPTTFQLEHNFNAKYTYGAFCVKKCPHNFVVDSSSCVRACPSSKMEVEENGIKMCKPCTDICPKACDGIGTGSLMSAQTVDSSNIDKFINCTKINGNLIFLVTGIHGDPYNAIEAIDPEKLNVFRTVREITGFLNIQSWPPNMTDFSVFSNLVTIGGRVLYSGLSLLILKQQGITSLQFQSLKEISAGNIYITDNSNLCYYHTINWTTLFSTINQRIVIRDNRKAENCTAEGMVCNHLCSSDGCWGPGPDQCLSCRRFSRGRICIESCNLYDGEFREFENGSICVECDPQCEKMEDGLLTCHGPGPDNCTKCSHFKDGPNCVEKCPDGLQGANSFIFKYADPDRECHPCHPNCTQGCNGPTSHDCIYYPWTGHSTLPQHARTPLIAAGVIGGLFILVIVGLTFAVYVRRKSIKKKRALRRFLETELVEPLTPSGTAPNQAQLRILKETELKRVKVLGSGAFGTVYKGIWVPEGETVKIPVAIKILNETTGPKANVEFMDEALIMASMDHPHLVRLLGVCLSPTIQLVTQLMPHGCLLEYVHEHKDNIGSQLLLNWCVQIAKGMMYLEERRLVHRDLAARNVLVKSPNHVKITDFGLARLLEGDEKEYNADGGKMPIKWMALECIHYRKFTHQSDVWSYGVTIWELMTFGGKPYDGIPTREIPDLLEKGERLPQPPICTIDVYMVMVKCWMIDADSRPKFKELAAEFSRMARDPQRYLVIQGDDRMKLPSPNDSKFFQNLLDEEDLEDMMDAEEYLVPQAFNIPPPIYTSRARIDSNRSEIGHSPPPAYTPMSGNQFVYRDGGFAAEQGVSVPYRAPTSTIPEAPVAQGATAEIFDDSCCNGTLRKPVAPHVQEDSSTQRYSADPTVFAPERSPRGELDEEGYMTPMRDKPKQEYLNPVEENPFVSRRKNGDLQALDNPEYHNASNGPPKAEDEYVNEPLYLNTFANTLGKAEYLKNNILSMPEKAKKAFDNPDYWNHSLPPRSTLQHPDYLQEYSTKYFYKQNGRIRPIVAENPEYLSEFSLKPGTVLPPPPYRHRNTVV
T4 sequence (P06239 whole entry, species assumed, the tested form may be a part): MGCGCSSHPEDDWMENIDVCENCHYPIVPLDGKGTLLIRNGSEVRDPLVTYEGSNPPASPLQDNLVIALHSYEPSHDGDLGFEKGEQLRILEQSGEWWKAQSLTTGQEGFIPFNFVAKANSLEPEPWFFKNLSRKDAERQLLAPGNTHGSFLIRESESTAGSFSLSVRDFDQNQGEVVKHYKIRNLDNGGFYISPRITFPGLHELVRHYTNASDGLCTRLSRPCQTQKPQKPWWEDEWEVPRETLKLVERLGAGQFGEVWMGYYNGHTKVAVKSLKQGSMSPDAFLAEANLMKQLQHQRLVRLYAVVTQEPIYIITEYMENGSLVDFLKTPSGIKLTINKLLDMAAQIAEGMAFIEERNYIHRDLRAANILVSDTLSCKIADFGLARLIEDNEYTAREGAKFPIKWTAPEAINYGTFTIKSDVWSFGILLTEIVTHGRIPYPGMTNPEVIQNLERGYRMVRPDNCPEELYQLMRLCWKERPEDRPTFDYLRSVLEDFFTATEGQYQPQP
T7 sequence (P00533 25-1210, species assumed): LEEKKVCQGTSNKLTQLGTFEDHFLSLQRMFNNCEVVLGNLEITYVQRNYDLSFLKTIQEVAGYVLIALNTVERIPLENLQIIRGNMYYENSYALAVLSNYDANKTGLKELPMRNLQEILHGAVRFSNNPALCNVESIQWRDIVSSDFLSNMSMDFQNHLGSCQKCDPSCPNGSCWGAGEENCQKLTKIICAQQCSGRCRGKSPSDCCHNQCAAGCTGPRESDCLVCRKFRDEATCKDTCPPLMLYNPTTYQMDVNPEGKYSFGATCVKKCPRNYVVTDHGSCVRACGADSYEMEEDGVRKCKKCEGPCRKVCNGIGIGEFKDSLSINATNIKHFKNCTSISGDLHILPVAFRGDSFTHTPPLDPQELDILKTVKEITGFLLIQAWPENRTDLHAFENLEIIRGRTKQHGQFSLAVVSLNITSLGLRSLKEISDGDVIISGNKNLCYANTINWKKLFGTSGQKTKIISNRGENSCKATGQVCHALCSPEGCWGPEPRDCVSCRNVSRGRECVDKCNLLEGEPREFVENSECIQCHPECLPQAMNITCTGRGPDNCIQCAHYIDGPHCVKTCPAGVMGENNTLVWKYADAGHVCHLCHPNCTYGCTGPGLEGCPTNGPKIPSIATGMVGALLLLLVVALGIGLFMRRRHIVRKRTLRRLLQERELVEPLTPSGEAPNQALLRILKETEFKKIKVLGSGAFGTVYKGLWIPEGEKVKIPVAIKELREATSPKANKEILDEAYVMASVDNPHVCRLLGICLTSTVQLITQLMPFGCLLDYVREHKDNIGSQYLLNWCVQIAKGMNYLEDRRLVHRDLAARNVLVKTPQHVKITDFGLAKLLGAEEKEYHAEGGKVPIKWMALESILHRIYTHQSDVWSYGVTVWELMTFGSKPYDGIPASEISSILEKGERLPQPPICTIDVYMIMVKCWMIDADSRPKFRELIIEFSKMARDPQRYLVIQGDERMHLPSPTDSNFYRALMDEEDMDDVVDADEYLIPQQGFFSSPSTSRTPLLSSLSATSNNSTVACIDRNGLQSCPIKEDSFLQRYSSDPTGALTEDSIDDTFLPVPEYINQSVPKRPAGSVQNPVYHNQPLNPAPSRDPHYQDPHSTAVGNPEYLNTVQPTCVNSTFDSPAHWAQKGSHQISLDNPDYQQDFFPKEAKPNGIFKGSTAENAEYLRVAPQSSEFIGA

Row | pIC50 (Src) | pIC50 (ErbB4) | pIC50 (AKT) | pIC50 (Lck) | pIC50 (Zap-70) | pIC50 (EPHB4) | pIC50 (EGFR) | pIC50 (IGFR-1) | Structure (SMILES)
1 | < 4.95 | < 4.95 | < 4.95 | > 6.00 | < 4.95 | < 4.95 | > 6.00 | < 4.95 | COc1cc(Nc2ncnc(Nc3cccc4ccccc34)n2)cc(OC)c1OC [Compound 98]
2 | > 6.02 | > 6.02 | < 4.97 | > 6.02 | < 4.97 | > 6.02 | 5.24 to 6.02 | > 6.02 | COc1cc(Nc2ncnc(Nc3cc(-c4ccccc4)n[nH]3)n2)cc(OC)c1OC [Compound 102]
3 | > 5.97 | 5.19 to 5.97 | < 4.91 | > 5.97 | < 4.91 | 5.19 to 5.97 | 5.19 to 5.97 | 5.19 to 5.97 | COc1cc(Nc2ncnc(Nc3ccc(O)cc3)n2)cc(OC)c1OC [Compound 85]
4 | < 4.94 | 5.21 to 5.99 | < 4.94 | < 4.94 | < 4.94 | < 4.94 | < 4.94 | 5.05 to 5.21 | COc1cc(Nc2ncnc(-c3c(O)[nH]c4ccccc34)n2)cc(OC)c1OC [Compound 380]
5 | > 6.05 | 5.27 to 6.05 | < 5.00 | > 6.05 | < 5.00 | < 5.00 | > 6.05 | 5.10 to 5.27 | COc1cc(Nc2ncnc(Nc3ccc(Oc4ccccc4)cc3)n2)cc(OC)c1OC [Compound 29]
6 | 5.20 to 5.98 | 4.93 to 5.04 | < 4.93 | 5.20 to 5.98 | 4.93 to 5.04 | < 4.93 | 5.20 to 5.98 | > 5.98 | COc1cccc(Nc2ncnc(Nc3cc(OC)c(OC)c(OC)c3)n2)c1 [Compound 87]
7 | < 5.05 | 5.05 to 5.16 | < 5.05 | > 6.10 | < 5.05 | 5.05 to 5.16 | 5.05 to 5.16 | 5.33 to 6.10 | COc1cc(Nc2ncnc(-n3c(Nc4ccc5[nH]ccc5c4)nc4ccccc43)n2)cc(OC)c1OC [Compound 376]
8 | 5.21 to 5.99 | < 4.94 | < 4.94 | > 5.99 | < 4.94 | 5.21 to 5.99 | < 4.94 | > 5.99 | COc1cc(Nc2ncnc(-n3c(N)nc4ccccc43)n2)cc(OC)c1OC [Compound 289]
9 | 5.28 to 6.06 | < 5.01 | < 5.01 | 5.28 to 6.06 | 5.12 to 5.28 | < 5.01 | 5.28 to 6.06 | < 5.01 | COc1cc(Nc2ncnc(Nc3ccc(OCc4ccccc4)cc3)n2)cc(OC)c1OC [Compound 926]
10 | > 6.04 | < 4.99 | < 4.99 | > 6.04 | < 4.99 | 5.26 to 6.04 | > 6.04 | > 6.04 | COc1cc(Nc2ncnc(Nc3cc(Cl)c(O)c(Cl)c3)n2)cc(OC)c1OC [Compound 68]
11 | < 5.03 | < 5.03 | < 5.03 | 5.30 to 6.08 | < 5.03 | < 5.03 | < 5.03 | < 5.03 | COc1cc(Nc2ncnc(-n3c(Nc4ccc(C)cc4)nc4ccccc43)n2)cc(OC)c1OC [Compound 385]
12 | < 5.06 | < 5.06 | < 5.06 | 5.33 to 6.11 | < 5.06 | < 5.06 | < 5.06 | < 5.06 | COc1cc(Nc2ncnc(-n3c(Nc4ccc(C(C)C)cc4)nc4ccccc43)n2)cc(OC)c1OC [Compound 388]
13 | < 5.03 | < 5.03 | < 5.03 | 5.14 to 5.30 | < 5.03 | < 5.03 | < 5.03 | < 5.03 | COc1cc(Nc2ncnc(-n3c(Nc4cccc(C)c4)nc4ccccc43)n2)cc(OC)c1OC [Compound 386]
